The results in this text go back to the supplement of paper PMC12463676, “Small-molecule dissolution of stress granules by redox modulation benefits ALS models” (Nature Chemical Biology, 2025).

Compound in one experiment: O=[As]([O-])(O)O.[K+] [potassium arsenate]
As to the kind of experiment: thermal stability z-score vs DMSO; higher = more thermally stabilized by treatment. The note with it: HeLa; arsenate concentration 1 mM. The protocol:
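Cellular thermal proteome profiling in HeLa cells treated with 1 mM arsenate for 1 h (DMSO pretreatment), heated to ten temperatures (37-66.3 °C). Soluble protein was quantified by TMT mass spectrometry relative to DMSO controls; the thermal stability score was transformed to a z-score; mean of n = 3 experiments.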

Compound in a further experiment: NC(=O)CCCCC1CCSS1 [lipoamide]
The description is as above. Conditions: HeLa, lipoamide concentration 100 µM. The procedure: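 Cellular thermal proteome profiling in HeLa cells. Cells were treated with 100 µM lipoamide for 1 h, with or without 1 mM arsenate for a further 1 h, then heated to ten temperatures (37-66.3 °C), and soluble protein was quantified by TMT mass spectrometry relative to 0.1% DMSO controls. The thermal stability score (sum of log2 fold changes minus the abundance score) was transformed to a z-score; mean of n = 3 experiments.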

Where [1] appears, read: arsenate co-treatment: 1 mM arsenate 1 h.
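Note: each temperature applied for 3 min, abundance score taken as mean log2 fold change at the two lowest temperatures, z-score obtained by mean subtraction and division by SD.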

UniProt O14617, sequence (O14617 whole entry): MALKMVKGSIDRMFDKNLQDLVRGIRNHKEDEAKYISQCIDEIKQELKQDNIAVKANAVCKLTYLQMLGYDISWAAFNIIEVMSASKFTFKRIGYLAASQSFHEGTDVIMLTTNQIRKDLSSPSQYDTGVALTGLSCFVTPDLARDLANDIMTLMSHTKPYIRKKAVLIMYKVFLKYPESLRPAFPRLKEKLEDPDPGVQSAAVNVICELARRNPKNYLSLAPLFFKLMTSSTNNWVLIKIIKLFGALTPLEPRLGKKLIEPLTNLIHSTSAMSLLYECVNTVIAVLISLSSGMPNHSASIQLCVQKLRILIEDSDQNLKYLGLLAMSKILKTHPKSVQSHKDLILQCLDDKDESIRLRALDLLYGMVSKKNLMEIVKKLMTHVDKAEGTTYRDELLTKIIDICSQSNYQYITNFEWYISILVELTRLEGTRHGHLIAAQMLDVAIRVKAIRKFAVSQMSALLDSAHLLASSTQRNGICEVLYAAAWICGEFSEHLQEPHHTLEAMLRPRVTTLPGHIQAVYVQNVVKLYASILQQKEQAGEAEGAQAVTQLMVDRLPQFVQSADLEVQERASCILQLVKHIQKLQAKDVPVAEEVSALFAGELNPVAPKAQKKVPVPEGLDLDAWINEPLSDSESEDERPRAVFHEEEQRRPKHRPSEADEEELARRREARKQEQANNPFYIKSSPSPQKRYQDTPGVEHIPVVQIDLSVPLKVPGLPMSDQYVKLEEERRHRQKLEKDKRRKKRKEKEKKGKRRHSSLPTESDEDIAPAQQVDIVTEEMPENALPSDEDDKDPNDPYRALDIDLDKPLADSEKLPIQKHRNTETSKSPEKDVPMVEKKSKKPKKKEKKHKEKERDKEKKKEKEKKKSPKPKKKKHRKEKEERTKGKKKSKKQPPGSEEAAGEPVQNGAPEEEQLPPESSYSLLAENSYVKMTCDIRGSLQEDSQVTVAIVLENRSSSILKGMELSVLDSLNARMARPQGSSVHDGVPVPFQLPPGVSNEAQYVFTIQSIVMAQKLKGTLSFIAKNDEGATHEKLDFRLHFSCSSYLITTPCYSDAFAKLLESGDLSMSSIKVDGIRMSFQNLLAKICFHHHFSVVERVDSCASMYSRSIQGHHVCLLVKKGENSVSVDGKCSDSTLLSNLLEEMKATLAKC
UniProt Q9BZZ5, sequence (Q9BZZ5 whole entry): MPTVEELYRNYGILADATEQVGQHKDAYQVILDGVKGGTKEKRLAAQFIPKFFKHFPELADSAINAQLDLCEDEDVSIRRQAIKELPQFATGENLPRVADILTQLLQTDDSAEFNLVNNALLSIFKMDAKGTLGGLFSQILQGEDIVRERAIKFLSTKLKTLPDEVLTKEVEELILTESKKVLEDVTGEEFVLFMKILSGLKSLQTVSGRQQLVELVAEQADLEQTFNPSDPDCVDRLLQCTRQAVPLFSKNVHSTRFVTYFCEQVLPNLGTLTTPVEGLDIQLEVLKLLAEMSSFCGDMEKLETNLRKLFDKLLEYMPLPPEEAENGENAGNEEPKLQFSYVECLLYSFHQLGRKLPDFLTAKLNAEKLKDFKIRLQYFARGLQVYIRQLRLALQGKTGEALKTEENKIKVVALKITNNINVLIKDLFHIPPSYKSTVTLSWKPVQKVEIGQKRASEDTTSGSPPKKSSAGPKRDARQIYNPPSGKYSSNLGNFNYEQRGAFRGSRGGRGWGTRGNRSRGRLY
UniProt Q06481, sequence (Q06481 whole entry): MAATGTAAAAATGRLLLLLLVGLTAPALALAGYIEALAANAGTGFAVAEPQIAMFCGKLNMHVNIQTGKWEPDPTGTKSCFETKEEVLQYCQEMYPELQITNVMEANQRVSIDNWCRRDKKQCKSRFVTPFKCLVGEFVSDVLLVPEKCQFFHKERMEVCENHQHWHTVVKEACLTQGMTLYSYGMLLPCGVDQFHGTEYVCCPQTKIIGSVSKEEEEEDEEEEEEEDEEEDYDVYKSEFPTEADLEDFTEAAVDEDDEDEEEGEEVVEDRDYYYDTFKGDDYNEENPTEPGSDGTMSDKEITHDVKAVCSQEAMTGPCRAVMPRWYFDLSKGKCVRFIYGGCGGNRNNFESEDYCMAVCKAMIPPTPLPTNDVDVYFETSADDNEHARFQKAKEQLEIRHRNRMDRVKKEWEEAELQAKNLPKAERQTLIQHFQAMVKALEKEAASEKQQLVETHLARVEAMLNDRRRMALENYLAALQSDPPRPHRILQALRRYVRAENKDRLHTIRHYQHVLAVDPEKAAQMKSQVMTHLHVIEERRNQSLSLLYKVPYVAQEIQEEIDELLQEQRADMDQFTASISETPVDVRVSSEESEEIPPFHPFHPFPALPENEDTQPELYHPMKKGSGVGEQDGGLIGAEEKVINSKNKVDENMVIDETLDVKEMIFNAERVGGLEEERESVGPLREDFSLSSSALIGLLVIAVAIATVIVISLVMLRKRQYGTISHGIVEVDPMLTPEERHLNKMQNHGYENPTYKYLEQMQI
UniProt P63010, sequence (P63010 whole entry): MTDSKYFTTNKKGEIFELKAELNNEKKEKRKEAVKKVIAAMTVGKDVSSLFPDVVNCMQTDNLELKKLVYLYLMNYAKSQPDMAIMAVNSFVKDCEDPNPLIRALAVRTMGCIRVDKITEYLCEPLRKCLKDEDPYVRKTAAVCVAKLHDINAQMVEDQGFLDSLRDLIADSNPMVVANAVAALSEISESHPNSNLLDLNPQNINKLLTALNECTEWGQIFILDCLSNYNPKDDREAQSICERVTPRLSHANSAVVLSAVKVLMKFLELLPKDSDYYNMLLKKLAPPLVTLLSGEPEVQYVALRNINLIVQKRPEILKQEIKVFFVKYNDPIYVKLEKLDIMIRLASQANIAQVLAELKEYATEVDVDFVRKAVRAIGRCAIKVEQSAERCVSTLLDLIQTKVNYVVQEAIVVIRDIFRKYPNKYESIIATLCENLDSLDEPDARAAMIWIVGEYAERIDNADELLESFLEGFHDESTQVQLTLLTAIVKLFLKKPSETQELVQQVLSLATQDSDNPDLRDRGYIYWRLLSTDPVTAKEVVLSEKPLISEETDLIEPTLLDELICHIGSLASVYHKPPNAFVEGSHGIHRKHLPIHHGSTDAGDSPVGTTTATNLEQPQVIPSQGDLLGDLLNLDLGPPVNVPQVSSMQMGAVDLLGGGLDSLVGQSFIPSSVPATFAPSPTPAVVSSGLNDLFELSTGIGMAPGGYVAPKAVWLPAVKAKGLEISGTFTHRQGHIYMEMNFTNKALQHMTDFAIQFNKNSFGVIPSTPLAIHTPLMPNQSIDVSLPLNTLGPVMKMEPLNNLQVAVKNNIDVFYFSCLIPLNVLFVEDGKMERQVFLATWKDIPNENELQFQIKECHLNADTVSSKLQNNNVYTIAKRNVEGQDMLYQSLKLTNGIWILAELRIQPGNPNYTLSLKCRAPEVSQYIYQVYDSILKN
UniProt Q96GX9, sequence (Q96GX9 whole entry): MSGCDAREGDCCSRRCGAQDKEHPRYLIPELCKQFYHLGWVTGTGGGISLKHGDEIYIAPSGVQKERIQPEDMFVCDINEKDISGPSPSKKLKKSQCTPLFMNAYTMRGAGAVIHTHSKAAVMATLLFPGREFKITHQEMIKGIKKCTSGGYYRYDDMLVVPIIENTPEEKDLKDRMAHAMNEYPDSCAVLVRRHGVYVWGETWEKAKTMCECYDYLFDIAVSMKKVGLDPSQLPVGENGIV
UniProt O43299, sequence (O43299 whole entry): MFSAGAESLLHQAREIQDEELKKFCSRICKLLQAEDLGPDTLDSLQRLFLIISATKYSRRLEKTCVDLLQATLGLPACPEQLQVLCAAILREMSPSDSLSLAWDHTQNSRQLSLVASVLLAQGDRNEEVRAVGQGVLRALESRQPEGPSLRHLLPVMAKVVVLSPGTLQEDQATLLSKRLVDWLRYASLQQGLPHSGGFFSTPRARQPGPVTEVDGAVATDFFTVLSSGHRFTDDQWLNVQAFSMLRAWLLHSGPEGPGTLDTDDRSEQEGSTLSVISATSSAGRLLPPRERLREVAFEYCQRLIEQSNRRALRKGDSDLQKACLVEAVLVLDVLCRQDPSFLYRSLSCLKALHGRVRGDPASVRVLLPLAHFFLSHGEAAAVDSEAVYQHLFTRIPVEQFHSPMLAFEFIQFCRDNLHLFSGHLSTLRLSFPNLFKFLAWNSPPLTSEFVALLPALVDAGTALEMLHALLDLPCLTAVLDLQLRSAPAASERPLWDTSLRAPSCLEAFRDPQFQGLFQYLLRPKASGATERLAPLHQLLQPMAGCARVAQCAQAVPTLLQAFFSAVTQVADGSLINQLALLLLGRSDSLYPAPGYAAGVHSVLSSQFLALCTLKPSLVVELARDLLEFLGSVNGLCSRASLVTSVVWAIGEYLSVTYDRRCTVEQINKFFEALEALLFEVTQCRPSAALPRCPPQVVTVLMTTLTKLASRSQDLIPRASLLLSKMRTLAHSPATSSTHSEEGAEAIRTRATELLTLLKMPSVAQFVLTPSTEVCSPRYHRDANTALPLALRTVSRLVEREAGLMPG
UniProt Q9HDC9, sequence (Q9HDC9 whole entry): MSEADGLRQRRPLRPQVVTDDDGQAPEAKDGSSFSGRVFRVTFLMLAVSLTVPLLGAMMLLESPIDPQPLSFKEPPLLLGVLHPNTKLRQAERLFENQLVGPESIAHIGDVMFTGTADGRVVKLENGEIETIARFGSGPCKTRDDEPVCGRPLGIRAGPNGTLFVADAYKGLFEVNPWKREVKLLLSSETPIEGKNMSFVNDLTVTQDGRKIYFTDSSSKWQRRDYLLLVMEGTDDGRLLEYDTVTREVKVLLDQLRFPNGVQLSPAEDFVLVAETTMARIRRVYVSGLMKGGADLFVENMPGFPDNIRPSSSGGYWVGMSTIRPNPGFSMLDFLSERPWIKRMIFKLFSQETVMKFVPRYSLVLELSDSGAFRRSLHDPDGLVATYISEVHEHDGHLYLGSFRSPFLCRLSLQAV
UniProt Q92572, sequence (Q92572 whole entry): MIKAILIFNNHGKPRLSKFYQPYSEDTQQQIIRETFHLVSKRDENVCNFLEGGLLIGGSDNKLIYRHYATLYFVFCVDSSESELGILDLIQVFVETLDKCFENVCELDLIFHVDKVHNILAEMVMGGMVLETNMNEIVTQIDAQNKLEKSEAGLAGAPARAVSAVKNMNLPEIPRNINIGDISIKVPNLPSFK

Regarding AP2A2 (UniProt O94973), the thermal stability z-score is -0.337 with potassium arsenate, -0.0644 with lipoamide (setting [1]) and -0.149 with lipoamide (arsenate co-treatment: none).
In the same order, the values of AP2B1 (UniProt P63010) are -0.216, -0.153 and -0.596.
In the same order, the values of AP2M1 (UniProt Q96CW1) are 0.0231, 0.48 and 0.0269.
For AP2S1 (UniProt P53680), the values for the thermal stability z-score with potassium arsenate, in the experiment with lipoamide (setting [1]) and in the experiment with lipoamide (arsenate co-treatment: none) were 0.767, -0.111 and -0.0691, respectively.
In the same order, the values of AP3B1 (UniProt O00203) are 0.404, -0.0343 and 0.0807.
For AP3D1 (UniProt O14617) the same measures were 0.577, -0.494 and -0.336.
For AP3M1 (UniProt Q9Y2T2) the same measures were 0.418, 0.0419 and 0.0205.
Turning to AP3S1 (UniProt Q92572), the thermal stability z-score with potassium arsenate worked out at 0.131; in the experiment with lipoamide (setting [1]), 0.0661; with lipoamide (arsenate co-treatment: none) it was 0.0785.
For AP4B1 (UniProt Q9Y6B7) the same measures were -0.137, 0.0905 and -0.147.
For AP4E1 (UniProt Q9UPM8) the same measures were -0.068, -0.117 and -0.092.
In the same order, the values of AP4M1 (UniProt O00189) are -0.173, 0.0799 and -0.0232.
For AP5Z1 (UniProt O43299), the thermal stability z-score in the experiment with potassium arsenate was 0.502; with lipoamide (setting [1]), 0.0372; with lipoamide (arsenate co-treatment: none), 0.822.
In the same order, the values of APAF1 (UniProt O14727) are -0.00853, -0.167 and -0.0627.
As to APBB2 (UniProt Q92870), the figures for the thermal stability z-score with potassium arsenate, in the experiment with lipoamide (setting [1]) and with lipoamide (arsenate co-treatment: none) were 0.0987, 0.078 and -0.11, respectively.
In the same order, the values of APC (UniProt P25054) are 0.816, 0.728 and 0.273.
In the same order, the values of APEH (UniProt P13798) are 0.225, 0.391 and 0.223.
APEX1 (UniProt P27695): the thermal stability z-score is -0.345 with potassium arsenate, -0.558 with lipoamide (setting [1]) and 0.406 with lipoamide (arsenate co-treatment: none).
For APEX2 (UniProt Q9UBZ4) the same measures were -0.747, 0.0959 and 0.209.
For APH1A (UniProt Q96BI3) the same measures were -0.696, 0.28 and -0.0861.
In the same order, the values of API5 (UniProt Q9BZZ5) are 0.0226, 0.11 and 0.124.
With APIP (UniProt Q96GX9), the values for the thermal stability z-score with potassium arsenate, in the experiment with lipoamide (setting [1]) and with lipoamide (arsenate co-treatment: none) were -0.0221, 0.597 and 0.408, respectively.
Consider APLP2 (UniProt Q06481), for which the thermal stability z-score in the experiment with potassium arsenate is -0.251; with lipoamide (setting [1]), -2.13; with lipoamide (arsenate co-treatment: none), -1.76.
For APMAP (UniProt Q9HDC9) the same measures were 0.179, 1.33 and 0.655.
